Structures are written as SMILES. ≈ marks a conversion by molar mass, not a printed value. Like-named read-outs stand apart in the source and are kept apart here.

Data set [1] is described as follows: Incorporation efficiency (EE) in liposomes prepared by hydration of a lipid and drugs film. It is filed as physicochemical. The method, then:
Different lipids (20 μmol) and the prodrug (2 μmol) were weighed out, transferred to a round-bottom flask, dissolved in chloroform and the organic solvent evaporated using a rotating evaporator to form a lipid film. This film was then dried in a vacuum bomb for the removal of chloroform residues and 1 ml of isotonic phosphate pH 7.4 buffer (PBS) was added at a temperature at least 10° C. higher than the phase transition temperature (TC) of the lipids used. The mixture was stirred for an additional five minutes to complete hydration of the lipid film and, after a few minutes at rest, it was stirred again for a further five minutes.
In order to determine the incorporation efficiency (EE), aliquots of the liposomal suspension after hydration and of the liposomal suspension obtained after centrifugation, supernatant removal and re-suspension of the sediment in its original volume (before being centrifuged) were collected. The EEs were calculated as the ratio between the prodrug concentration in the re-suspended liposome suspension and the prodrug concentration in the initial liposome suspension. Tables 2 to 6 show the EE values obtained for several formulations of different prodrugs.
All the prepared suspensions were checked using an optical phase contrast microscope set at 400× magnification.

Data set [2] can be described thus: Incorporation efficiency (EE) in liposomes prepared by hydration of a lipid and prodrugs lyophilisate. It is filed as physicochemical. The following applies: hydration of lipids and prodrugs lyophilisate. The method, then:
Solutions were prepared containing 20 μmol of lipids and 2 μmol of prodrug in 10 ml of tert-butanol and were filtered by sterile filtration. These solutions were then frozen in liquid nitrogen and lyophilised for 24 hours.
After lyophilisation, the solutions were hydrated by the addition of 1 ml of PBS at a temperature of at least 10° C. higher than that of the phase transition temperature (TC) of the lipids, using an ultrasound water bath for two minutes. The incorporation efficiencies (EE) were calculated as described above for the liposome preparation carried out by hydration of a lipid film and are shown in Table 7.
All the suspensions produced were checked using an optical microscope set at 400× magnification.

The nature of data set [3]: in vitro. It counts as in vitro ADME. The note with it: human, plasma. The method, then:
750 μl of plasma, 700 μl of PBS and 50 μl of stock solution of the compound (3.6×10^−3M) were added to each one of the test compounds in the free form in a test tube. The tube was incubated at 37° C. under agitation, and 150 μl aliquots were removed every five minutes, diluted with 600 μl of acetonitrile (ACN), and then centrifuged. The supernatant was removed and injected into an HPLC system. The area values obtained for each chromatogram were used to determine the half-life of each prodrug.
To each liposomal suspension in a test tube, 750 μl of plasma was added and diluted with PBS to a final volume of 3000 μl. The final drug concentration in each tube was 2×10^−3 M. The test tubes were then incubated at 37° C. with agitation and 150 μl aliquots were then removed at set time intervals, diluted with 600 μl of acetonitrile (ACN), and then centrifuged. For the remainder of the process, the same procedure was followed as described above for the free form case.

Data set [4] in a line: in vitro. It is filed as in vitro ADME. The note with it: rat, tissue homogenate. Here is the method: For each of the compounds in free form, 50 μl of rat liver homogenate, 1400 μl of PBS and 50 μl of compound stock solution were added (3.6×10^−3 M) in a test tube. The tubes were incubated at 37° C. under agitation, and aliquots of 150 μl were removed every minute, diluted with 600 μl of acetonitrile (ACN), and then centrifuged. The supernatant was removed and placed into the vials of an autosampler and analysed by HPLC.
To each liposomal suspension in a test tube, 50 μl of homogenate was added and diluted with PBS to a final volume of 1500 μl. The final drug concentration was 2×10^−3 M. The test tubes were incubated at 37° C. under agitation and sample collection and analysis were carried out by the same procedure used for determining the stability of liposomal drugs in plasma.

Data set [5] deals with Mycobacterium tuberculosis H37Ra. The data set is described as follows: Determination of the Minimum Inhibitory Concentration (MIC) by successive dilutions. The following applies: for MIC: broth, pH 5.5, about 21 days at 37° C.; for fold lower MIC values than those for PZA and POA: in vitro, pH 5.5. It is filed as cell-based. The method, then:
Mycobacterium tuberculosis H37Ra was used as the reference strain. The esters C12, C14 and C16, pyrazinamide (PZA) and pyrazinoic acid (POA) were prepared in stock solutions of dimethyl sulfoxide (DMSO) at a concentration of 8 mg/ml. The Minimum Inhibitory Concentration was determined by the method of successive dilutions. The culture medium Myco (nutrient Broth-Difco, 10 g/L; Middlebrook 7H9-Difco, 10 g/L, 0,05% glucose and 0.01% of Tween 80) supplemented with OADC (Difco) was used and the pH was adjusted to 5.5.
To each test tube of each stage of the successive dilutions of the test compound, a sufficient volume of bacterial inoculum was added so as to provide a final concentration of 10^4 CFU/ml (CFU=Colony Forming Units). The tubes were incubated for about 21 days at 37° C. The onset of turbidity in the control tube (free of drugs) was checked for on a regular basis. Once turbidity appeared in the control test tube, the results were recorded where the MIC value was defined as the lowest concentration of drug able to inhibit the growth of mycobacteria (note there was a total absence of turbidity in the first test tube of the successive dilution sequence). These tests were performed in triplicate for each test compound. As expected, the MIC for PZA was 100 μg/ml.

The test system of data set [6] is M. tuberculosis H37Ra. In words: Antimycobacterial activity of free and encapsulated compounds in macrophage infected with Mycobacterium tuberculosis. The following applies: infected J774.A1 macrophage. It counts as cell-based. Here is the method:
In evaluating the antimycobacterial activity, a conventional method (Anes et al., Nat Cell Biol, 2003) was employed using a cell culture of […] (cell line J774.A1).
Briefly, the macrophage was plated in a DMEM medium having a high glucose concentration and supplemented with 10% Foetal Bovine Serum, in 24 well tissue culture plates at 37° C. in a 5% carbon dioxide atmosphere. As soon as about 80% confluence was obtained, the cells were infected with M. tuberculosis H37Ra at a rate such that an inoculum concentration of 10^6 mycobacteria/ml per well was obtained.
After 3 hours of bacterial uptake, 1 to 5 bacillus per infected cell and a total of about 10E4-5 bacteria/ml were expected per well. Washing of the infected cultures with pH 7 buffer PBS was then carried out three times in order to eliminate all bacteria non internalised by the macrophage. Fresh DMEM medium was added with and without the test compound.
The incubation period was 7 days using fresh medium every 3 days. The compounds were added after 3 hours of internalization and remained in contact with the infected cells until fresh medium DMEM was added.
After 3 hours, 1 day, 3 days, 5 days and 7 days from the beginning of the infection, intracellular bacteria were recovered for lyses of the infected macrophage with a 1% IGEPAL solution (Sigma) in water. At this concentration, macrophage are lysed with no effect on the viability of the mycobacteria.
After successive dilutions of the lysate with water, the surviving bacteria were cultured in Middlebrook 7H10 medium supplemented with OADC (Difco). After about 2 weeks of incubation at 37° C. the Unity Forming Colonies (UFCs) were counted. Each test was carried out in triplicate in independent experiments.

The mark [7] stands for this setting: lipid formulation DMPC:DMPG (9:1).
Setting [8] is: pH 7.4, Half-life (min) Free form.
Where [9] appears, read: pH 7.4, Half-life (min) Vesicular form (DMPC).
The mark [10] stands for this setting: Mycobacterium tuberculosis, H37RA, 504 h, pH 5.5, M. tuberculosis H37Ra, read-out: MIC.

Consider `CCCCCCCCCCOC(=O)c1ccccc1` [BD, decyl benzoate], for which the results for the “EE (%) incorporation efficiency” value in data set [1] (lipid formulation DMPC) and in data set [1] (lipid formulation DPPC) were 94.1% and 93.4%, respectively.

Take `CCCCCCCCCCCCCCNC(=O)c1cnccn1` [Compound A14, N-tetradecyl pyrazinamide]: the “EE (%) incorporation efficiency” value in data set [1] (lipid formulation DMPC) stood at 95.2%; in data set [1] (setting [7]), 98.6%; in data set [1] (lipid formulation DPPC), 96.4%.

With `CCCCCCCCCCCCCCCCOC(=O)c1cnccn1` [Compound C16, hexadecyl pyrazinoate], in data set [2] (lipid formulation DMPC), the “EE (%) incorporation efficiency” value worked out at 97.3%. Also, the half-life (commonly how long it takes for the measured level to halve) was 1.13 h in data set [3] (setting [8]), 3.57 h in data set [3] (setting [9]), 0.35 h in data set [4] (setting [8]) and 12.8 h in data set [4] (setting [9]). The MIC – broadly, the lowest concentration found to suppress growth – in data set [5] (setting [10]) was 20 to 40 µg/mL (≈ 57.4 to 115 µM).

`CCCCCCCCOC(=O)C=Cc1ccccc1` [CO, octyl cinnamate]: the “EE (%) incorporation efficiency” value in data set [1] (lipid formulation DMPC) is given as 92.2%; in data set [1] (lipid formulation DPPC), 94.5%.

Consider `CCCCCCCCCCCCOC(=O)c1cnccn1` [Compound C12, dodecyl pyrazinoate], for which the “EE (%) incorporation efficiency” value in data set [1] (lipid formulation DMPC) turned out to be 94.7%; in data set [1] (lipid formulation DMPC:DMPG (7:3)), 82.7%; in data set [1] (setting [7]), 87.0%; in data set [1] (lipid formulation DPPC) it was 93.1%; in data set [1] (lipid formulation DPPC:DPPG (7:3)), 90.2%; in data set [1] (lipid formulation DPPC:DPPG (9:1)), 87.2%. Besides, the “EE (%) incorporation efficiency” value in data set [2] (lipid formulation DMPC) amounted to 95.6%. The half-life amounted to 0.25 h in data set [3] (setting [8]), 1.3 h in data set [3] (setting [9]), 0.0333 h in data set [4] (setting [8]) and 0.9 h in data set [4] (setting [9]). The MIC in data set [5] (setting [10]) fell in the range of 20 to 40 µg/mL (≈ 68.4 to 137 µM). Further, the “fold lower MIC values than those for PZA and POA” value in data set [5] came to 10 fold. The “intracellular bacterial growth after 7 days of infection” value (“intracellular bacterial growth” below) in data set [6] is given as “latency was observed”. Moreover, the “difference in bactericidal effect between DPPC and DMPC formulations” value in data set [6] (liposomal forms) is reported as “no such significant differences”. The “increase of bactericidal effect by encapsulation in liposomes relatively to free form” value in data set [6] (FIG. 1B) is “about 50%”. Moreover, in data set [6] (free or vesicular form, FIG. 2A, 2B), the “bactericidal effect, comparison of compounds” value is “greatest bactericidal effect”.

Take `NC(=O)c1cnccn1` [PZA, pyrazinamide, reference compound]: the minimal inhibitory concentration (MIC) in data set [5] (M. tuberculosis H37Ra) is 100 to 200 µg/mL; in data set [5] (setting [10]) it was 100 µg/mL (≈ 812 µM). Also, the “intracellular bacterial growth” value in data set [6] is reported as “bacteria recovered their ability of intracellular growth”.

As to `CCCCCCCCCCCCCCOC(=O)c1cnccn1` [Compound C14, tetradecyl pyrazinoate], the “EE (%) incorporation efficiency” value in data set [2] (lipid formulation DMPC) was found to be 98.2%; in data set [2] (lipid formulation DPPC), 97.4%. The half-life is 0.317 h in data set [3] (setting [8]), 2.63 h in data set [3] (setting [9]), 0.0667 h in data set [4] (setting [8]) and 2.82 h in data set [4] (setting [9]). In data set [5] (setting [10]), the MIC was in the range of 10 to 20 µg/mL (≈ 31.2 to 62.4 µM). The “fold lower MIC values than those for PZA and POA” value in data set [5] is recorded as 10 fold.

As for `O=C(O)c1cnccn1` [POA, pyrazinoic acid, reference compound], the MIC in data set [5] (setting [10]) fell in the range of 100 to 200 µg/mL (≈ 806 to 1610 µM). Moreover, in data set [6], the “intracellular bacterial growth” value is “bacteria recovered their ability of intracellular growth”.

For the compound `CCCCCCCCCCCCCCCCNC(=O)c1cnccn1` [Compound A16, hexadecyl pyrazinamide], the “EE (%) incorporation efficiency” value in data set [1] (lipid formulation DMPC) came to 97.0%; in data set [1] (lipid formulation DMPG:DMPG 9:1) it was 98.4%; in data set [1] (lipid formulation DPPM), 98.1%.

The values are drawn from patent publication US20100221315A1, “VESICULAR FORMULATIONS CONTAINING ORGANIC ACID PRODRUGS, PROCESS FOR THEIR PREPARATION” (UNIVERSIDADE DE LISBOA, priority 2006, published 2010).
